From ChEMBL document CHEMBL4418303, “1-cyano-pyrrolidine derivatives as inhibitors of usp30” (2017)
pIC50: −log10 of the molar value.

Biological target: T1, Ubiquitin carboxyl-terminal hydrolase 30 (Homo sapiens, UniProt Q70CQ3)
T1 sequence (Q70CQ3 whole entry): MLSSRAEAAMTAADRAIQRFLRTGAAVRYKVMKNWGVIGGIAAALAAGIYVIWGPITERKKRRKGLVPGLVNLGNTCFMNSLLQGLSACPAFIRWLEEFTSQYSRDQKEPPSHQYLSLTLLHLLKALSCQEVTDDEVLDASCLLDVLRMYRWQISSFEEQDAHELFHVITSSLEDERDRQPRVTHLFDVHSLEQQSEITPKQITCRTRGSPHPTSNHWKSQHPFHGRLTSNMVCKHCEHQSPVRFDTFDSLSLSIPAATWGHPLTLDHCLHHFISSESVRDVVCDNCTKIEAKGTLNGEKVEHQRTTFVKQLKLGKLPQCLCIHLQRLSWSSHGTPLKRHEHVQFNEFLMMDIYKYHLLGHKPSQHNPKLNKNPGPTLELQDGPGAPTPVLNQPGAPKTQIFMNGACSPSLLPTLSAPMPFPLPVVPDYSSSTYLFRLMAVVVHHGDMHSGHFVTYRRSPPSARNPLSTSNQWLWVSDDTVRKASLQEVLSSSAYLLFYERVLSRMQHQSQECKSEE
Test: Inhibition of untagged human USP30 catalytic domain (57 to 517 residues) expressed in Escherichia coli using TAMRA labeled ubiquitin peptide as substrate preincubated for 30 min followed by substrate addition and measured after 2 hrs by fluorescence polarization assay

CN1c2ccccc2CN([C@@H]2CCN(C#N)C2)S1(=O)=O
pIC50: 5.00 to 6.00

CN1c2ccc(-c3ccccc3)cc2CN([C@@H]2CCN(C#N)C2)S1(=O)=O
pIC50: 6.00 to 7.00

N#CN1CC[C@@H](N2Cc3ccnc(N4CCOCC4)c3NS2(=O)=O)C1
pIC50: 5.00 to 6.00
